Reference: ChEMBL document CHEMBL3885881, “DrugMatrix”

Species: Rattus norvegicus
Experiment: DrugMatrix - Regimen: Daily Repeat
Assay type: toxicity, organism-based, Sprague-Dawley
Parameters: regimen Daily Repeat, gender Male, age 6-8 weeks
Conditions: in vivo, po, route oral GAVAGE, vehicle .5 % CMC; for ABSOLUTE BASOPHIL / ABSOLUTE EOSINOPHIL / ABSOLUTE LYMPHOCYTE / ABSOLUTE MONOCYTE / ABSOLUTE SEGMENTED NEUTROPHIL / BASOPHIL / EOSINOPHIL / ERYTHROCYTE COUNT / HEMATOCRIT / HEMOGLOBIN / LEUKOCYTE COUNT / LYMPHOCYTE / MEAN CORPUSCULAR HEMOGLOBIN / MEAN CORPUSCULAR HEMOGLOBIN CONCENTRATION / MEAN CORPUSCULAR VOLUME / MONOCYTE / NEUTROPHIL / NUCLEATED RED BLOOD CELLS / PLATELET COUNT: tissue Blood; for ALANINE AMINOTRANSFERASE / ALBUMIN / ALKALINE PHOSPHATASE / ASPARTATE AMINOTRANSFERASE / BLOOD UREA NITROGEN / CARBON DIOXIDE / CHLORIDE / CHOLESTEROL / CREATINE PHOSPHOKINASE / CREATININE / GLUCOSE / LACTATE DEHYDROGENASE / LIPASE / PHOSPHORUS / POTASSIUM / SODIUM / TOTAL BILIRUBIN / TOTAL PROTEIN / URIC ACID: tissue Plasma
[1] = 150 mg/kg, 120 h, dose level Low, time 5 day
[2] = 1500 mg/kg, 72 h, dose level High, time 3 day
[3] = 1500 mg/kg, 120 h, dose level High, time 5 day

C[C@@H](O)[C@H]1C(=O)N2C(C(=O)O)=C(S[C@@H]3CN[C@H](C(=O)N(C)C)C3)[C@H](C)[C@H]12 [MEROPENEM]
ABSOLUTE BASOPHIL [1]: 0 CELLS/uL | ABSOLUTE EOSINOPHIL [1]: 351 CELLS/uL | ABSOLUTE LYMPHOCYTE [1]: 13228.33 CELLS/uL | ABSOLUTE MONOCYTE [1]: 0 CELLS/uL | ABSOLUTE SEGMENTED NEUTROPHIL [1]: 1520.67 CELLS/uL | BASOPHIL [1]: 0% | EOSINOPHIL [1]: 2.33% | ERYTHROCYTE COUNT [1]: 5.62 x10E6/uL | HEMATOCRIT [1]: 34.4% | HEMOGLOBIN [1]: 13.1 G/DL | LEUKOCYTE COUNT [1]: 15.1 x10E3/uL | LYMPHOCYTE [1]: 88% | MEAN CORPUSCULAR HEMOGLOBIN [1]: 23.37 pg | MEAN CORPUSCULAR HEMOGLOBIN CONCENTRATION [1]: 38.1 G/DL | MEAN CORPUSCULAR VOLUME [1]: 61.33 fL | MONOCYTE [1]: 0% | NEUTROPHIL [1]: 9.67% | NUCLEATED RED BLOOD CELLS [1]: 0 /100WBC | PLATELET COUNT [1]: 1149.33 x10E3/uL | ALANINE AMINOTRANSFERASE [1]: 61.33 u/L | ALBUMIN [1]: 4.13 G/DL | ALKALINE PHOSPHATASE [1]: 367 u/L | ASPARTATE AMINOTRANSFERASE [1]: 86 u/L | BLOOD UREA NITROGEN [1]: 19 mg/dL | CARBON DIOXIDE [1]: 25.33 mmol/L | CHLORIDE [1]: 101.67 MEQ/L | CHOLESTEROL [1]: 70 mg/dL | CREATINE PHOSPHOKINASE [1]: 254 u/L | CREATININE [1]: 0.23 mg/dL | GLUCOSE [1]: 161 mg/dL | LACTATE DEHYDROGENASE [1]: 187.67 u/L | LIPASE [1]: 9 u/L | PHOSPHORUS [1]: 12.3 mg/dL | POTASSIUM [1]: 6.26 MEQ/L | SODIUM [1]: 142.3 MEQ/L | TOTAL BILIRUBIN [1]: 0.17 mg/dL | TOTAL PROTEIN [1]: 5.93 G/DL | URIC ACID [1]: 1.6 mg/dL | ABSOLUTE BASOPHIL [2]: 0 CELLS/uL | ABSOLUTE EOSINOPHIL [2]: 214 CELLS/uL | ABSOLUTE LYMPHOCYTE [2]: 12444.67 CELLS/uL | ABSOLUTE MONOCYTE [2]: 0 CELLS/uL | ABSOLUTE SEGMENTED NEUTROPHIL [2]: 841.33 CELLS/uL | BASOPHIL [2]: 0% | EOSINOPHIL [2]: 1.33% | ERYTHROCYTE COUNT [2]: 5.72 x10E6/uL | HEMATOCRIT [2]: 35.5% | HEMOGLOBIN [2]: 13.53 G/DL | LEUKOCYTE COUNT [2]: 13.5 x10E3/uL | LYMPHOCYTE [2]: 92.33% | MEAN CORPUSCULAR HEMOGLOBIN [2]: 23.8 pg | MEAN CORPUSCULAR HEMOGLOBIN CONCENTRATION [2]: 38.2 G/DL | MEAN CORPUSCULAR VOLUME [2]: 62.23 fL | MONOCYTE [2]: 0% | NEUTROPHIL [2]: 6.33% | NUCLEATED RED BLOOD CELLS [2]: 0 /100WBC | PLATELET COUNT [2]: 1189 x10E3/uL | ALANINE AMINOTRANSFERASE [2]: 52.67 u/L | ALBUMIN [2]: 4.33 G/DL | ALKALINE PHOSPHATASE [2]: 317 u/L | ASPARTATE AMINOTRANSFERASE [2]: 76 u/L | BLOOD UREA NITROGEN [2]: 13.33 mg/dL | CARBON DIOXIDE [2]: 29.33 mmol/L | CHLORIDE [2]: 99.67 MEQ/L | CHOLESTEROL [2]: 85.33 mg/dL | CREATINE PHOSPHOKINASE [2]: 176.67 u/L | CREATININE [2]: 0.17 mg/dL | GLUCOSE [2]: 160.67 mg/dL | LACTATE DEHYDROGENASE [2]: 71 u/L | LIPASE [2]: 9 u/L | PHOSPHORUS [2]: 11.83 mg/dL | POTASSIUM [2]: 6.87 MEQ/L | SODIUM [2]: 144.6 MEQ/L | TOTAL BILIRUBIN [2]: 0.17 mg/dL | TOTAL PROTEIN [2]: 5.9 G/DL | URIC ACID [2]: 1.9 mg/dL | ABSOLUTE BASOPHIL [3]: 0 CELLS/uL | ABSOLUTE EOSINOPHIL [3]: 276.67 CELLS/uL | ABSOLUTE LYMPHOCYTE [3]: 12982 CELLS/uL | ABSOLUTE MONOCYTE [3]: 0 CELLS/uL | ABSOLUTE SEGMENTED NEUTROPHIL [3]: 1474.67 CELLS/uL | BASOPHIL [3]: 0% | EOSINOPHIL [3]: 2% | ERYTHROCYTE COUNT [3]: 5.69 x10E6/uL | HEMATOCRIT [3]: 36.37% | HEMOGLOBIN [3]: 13.67 G/DL | LEUKOCYTE COUNT [3]: 14.73 x10E3/uL | LYMPHOCYTE [3]: 88% | MEAN CORPUSCULAR HEMOGLOBIN [3]: 24.07 pg | MEAN CORPUSCULAR HEMOGLOBIN CONCENTRATION [3]: 37.6 G/DL | MEAN CORPUSCULAR VOLUME [3]: 63.97 fL | MONOCYTE [3]: 0% | NEUTROPHIL [3]: 10% | NUCLEATED RED BLOOD CELLS [3]: 0 /100WBC | PLATELET COUNT [3]: 1178 x10E3/uL | ALANINE AMINOTRANSFERASE [3]: 52.33 u/L | ALBUMIN [3]: 4.47 G/DL | ALKALINE PHOSPHATASE [3]: 443.33 u/L | ASPARTATE AMINOTRANSFERASE [3]: 75.67 u/L | BLOOD UREA NITROGEN [3]: 16.67 mg/dL | CARBON DIOXIDE [3]: 28.33 mmol/L | CHLORIDE [3]: 101.33 MEQ/L | CHOLESTEROL [3]: 60.67 mg/dL | CREATINE PHOSPHOKINASE [3]: 199 u/L | CREATININE [3]: 0.23 mg/dL | GLUCOSE [3]: 155 mg/dL | LACTATE DEHYDROGENASE [3]: 127.33 u/L | LIPASE [3]: 9 u/L | PHOSPHORUS [3]: 12.27 mg/dL | POTASSIUM [3]: 6.59 MEQ/L | SODIUM [3]: 147.07 MEQ/L | TOTAL BILIRUBIN [3]: 0.13 mg/dL | TOTAL PROTEIN [3]: 6.3 G/DL | URIC ACID [3]: 1.6 mg/dL
